Tests used:
[1] = biological target: T1, Stp1/Stp4/Stp3 subcomplex (Mycosarcoma maydis, UniProt A0A0D1C5E3+A0A0D1CU07+A0A0D1EAN2); experiment: Alamar Blue viability assay in S. cerevisiae 2-hybrid strain NL73 (viability depends on Stp complex formation); assay type: cell-based, U. maydis; conditions: for activity in the Alamar Blue assay with NL73: result in words
T1 sequence (A0A0D1CU07 29-515): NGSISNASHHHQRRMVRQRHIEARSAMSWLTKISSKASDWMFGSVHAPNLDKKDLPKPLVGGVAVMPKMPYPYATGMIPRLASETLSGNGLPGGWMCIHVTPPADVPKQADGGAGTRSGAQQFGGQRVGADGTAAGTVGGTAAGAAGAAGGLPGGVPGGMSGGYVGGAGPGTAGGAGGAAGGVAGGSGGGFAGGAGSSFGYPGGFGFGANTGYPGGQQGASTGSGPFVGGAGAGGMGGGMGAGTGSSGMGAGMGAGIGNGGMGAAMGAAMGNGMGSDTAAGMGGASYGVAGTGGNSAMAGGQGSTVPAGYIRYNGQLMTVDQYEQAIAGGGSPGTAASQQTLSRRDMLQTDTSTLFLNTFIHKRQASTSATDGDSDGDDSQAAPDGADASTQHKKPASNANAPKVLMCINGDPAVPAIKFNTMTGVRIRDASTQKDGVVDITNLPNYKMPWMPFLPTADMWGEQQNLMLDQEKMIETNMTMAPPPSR
T1 sequence (A0A0D1C5E3 24-129): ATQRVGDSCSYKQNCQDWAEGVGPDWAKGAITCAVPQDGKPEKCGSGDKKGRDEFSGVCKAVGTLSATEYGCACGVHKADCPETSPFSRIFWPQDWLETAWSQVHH
T1 sequence (A0A0D1EAN2 25-327): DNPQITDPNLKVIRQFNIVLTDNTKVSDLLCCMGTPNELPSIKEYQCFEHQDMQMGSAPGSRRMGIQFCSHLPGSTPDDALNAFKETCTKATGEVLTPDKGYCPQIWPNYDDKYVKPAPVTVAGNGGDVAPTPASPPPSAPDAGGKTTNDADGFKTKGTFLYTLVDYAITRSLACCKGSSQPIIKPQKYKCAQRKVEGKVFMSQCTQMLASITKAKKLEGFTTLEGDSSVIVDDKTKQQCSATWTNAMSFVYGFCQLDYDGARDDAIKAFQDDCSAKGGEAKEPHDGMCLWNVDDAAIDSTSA
Text: To develop a screening platform based on Stp complex formation, a Saccharomyces cerevisiae 2-hybrid system was used. […] After co-transformation, reporter gene transcription is activated only if the two fusion proteins interact in the yeast nucleus. Moreover, the S. cerevisiae strain AH109 harbours the reporter genes ADE2 and HIS3, which encode for two enzymes that are crucial for adenine (Ade) and histidine (His) biosynthesis and thereby enable nutritional selection as a read-out for the interaction between proteins. In the following experiments, growth on high-stringency synthetic defined (SD) medium (SD -Leu -Trp -Ade -His) was used to identify if the complex members interact between them causing expression of ADE2 and HIS3. Additionally, strains were also grown on low-stringency medium (SD -Leu -Trp) to confirm their viability. […] All experiments were done with three independent transformants to exclude false positives due to spontaneous mutations.
The S. cerevisiae strain AH109 from Clontech (Saint-Germain-en-Laye, France) is auxotrophic for tryptophan, leucine, adenine and histidine. In addition, lacz is under control of the MEL1 UAS to be used as readout for quantitative β-galactosidase assays.
The resulting test strain NL73 (AD-Stp4/BD-Stp1/myc-Stp3) expresses the Stp1/Stp4/Stp3 subcomplex. NL73 carries the following three plasmids: pGBKT7-stp1: pGBKT7 vector expressing proteins fused to the GAL4 DNA binding domain (DNA-BD). pGBKT7 also contains the T7 promoter, a c-Myc epitope tag, and a MCS. The vector carries a Kanamycin resistance gene (Kanr) for selection in E. coli and the TRP1 nutritional marker for selection in yeast. pGAD-stp4: pGADT7 vector expressing proteins fused to a GAL4 activation domain (AD). The GAL4 AD fusion contains an N-terminal nuclear localization signal that targets the protein to the yeast nucleus, and a HA Tag, located between the GAL4 AD and the protein of interest. The vector carries an ampicillin resistance gene (Ampr) for selection in E. coli and a LEU2 nutritional marker for selection in yeast. pYEA-stp3-myc: pYEA vector expressing proteins under the control of the phosphoglycerate kinase promoter. The vector carries an ampicillin resistance gene (Ampr) for selection in E. coli and an ADE2 nutritional marker for selection in yeast. As control strain, NL70 containing empty vectors was generated (AH109Δabc9 pGAD::LEU2 pGBK::TRP1 pYEA::ADE2).
After that, 25 µl of NL73 cell suspension were dispensed into the assay plates using Multidrop Combi (Thermofisher Scientific) giving a final screening concentration of 10 µM. One column of the assay plate was filled with 25 µl of NL70 control strain cell suspension as negative control. Plates were sealed with Breathe-Easy sealing membrane (Sigma, Z380059), lidded and incubated in a humid chamber over night at 30°C and 140 rpm in an HT Multitron Pro (Infors). […] For the viability assay, the alamar Blue HS Cell Viability reagent (Invitrogen, #A50101) was pre-diluted using an equal amount of dVE-H2O and 5 µl of diluted Alamar Blue were added to the screening plates using Multidrop Combi. The plates were sealed again and incubated for 4 h at room temperature, unlidded. […] Screening data was normalized to DMSO-treated NL73 cells (that received DMSO in the same concentration as in samples where compounds dissolved in DMSO were added) being 100% and DMSO-treated NL70 cells representing 0% viability and analyzed with Quattro Software Suite (Quattro Research GmbH).

[2] = biological target: T1, Stp1/Stp4/Stp3 subcomplex; experiment: Beta-Glo confirmatory assay (β-galactosidase expression) in NL73; assay type: cell-based, U. maydis; conditions: NL73 strain, Table 5; read-out: B-glo IC50
Procedure: This system allows luminescence-based quantification of β-galactosidase expression in cells which serves as a readout for promoter activation by interacting complex members Stp1, Stp3 and Stp4. Overnight cultures of NL73 and NL70 strains were harvested as described above. Dilution series of compound stock solution were pre-dispensed into black 384-well assay plates (Corning 4513) using Echo520 Nanoliter dispenser starting from 10 µM with 3-fold dilution over 8 steps. In the viability setup, 15 µl of NL73 cell suspension were dispensed into the assay plates using Multidrop Combi. One column of the assay plate was filled with 15 µl of NL70 cell suspension. In the toxicity setup, 15 µl of NL70 cell suspension in low stringency medium were dispensed into the assay plates with one column being filled with 15 µl of NL70 cell suspension in high stringency medium. Plates were sealed with Breathe-Easy sealing membrane, lidded and incubated in a humid chamber over night at 30°C and 140 rpm in an Infors HT Multitron Pro. After approximately 19 h, plates were centrifuged for 1 min at 500 rpm. 4 µl of Beta-Glo assay solution were added using Multidrop Combi. The plates were sealed again and incubated for 2.5 h at room temperature, unlidded. Luminescence readout was determined on a Spectramax Paradigm detection platform for 0.2 s. Dose response data was analysed with Quattro Software Suite.

[3] = NL73 strain, Table 5, read-out: A-blue IC50

| SMILES | IC50 ([1]; read-out: IC50 in the Alamar Blue viability assay of NL73) [nM] | IC50 ([1]; inhibitory activity on NL73 viability, Table 6, read-out: IC50) [nM] | activity in the Alamar Blue assay with NL73 [1] | IC50 [1, 3] [nM] | IC50 [2] [nM] |
| --- | --- | --- | --- | --- | --- |
| CC(C)n1ncc2cc(NS(=O)(=O)c3cc(F)ccc3F)cnc21 [Compound 1-B] | 2500 |  |  |  |  |
| Cc1ccc(CSc2nc(=O)n(C3CCCC3)c3c2CCC3)cc1 [Compound 1-C] |  | 670 | active in the nanomolar range |  |  |
| [O-][n+]1c(-c2ccc(C(F)(F)F)cc2)c(-c2ccc(C(F)(F)F)cc2)n2ccccc21 [Compound 2-A] |  |  |  | 20 | 230 |
| Cc1ccc(-c2c(-c3ccc(C)cc3)[n+]([O-])c3ccccn23)cc1 [Compound 1-A] |  |  | nanomolar potency | 140 | 760 |
| O=[N+]([O-])c1ccc(-c2c(-c3ccccc3)n3ccccc3[n+]2[O-])cc1 [Compound 3-A] |  |  |  | 250 | 860 |

From patent EP4039094A1, “NOVEL ANTIFUNGAL COMPOUNDS” (Max-Planck-Gesellschaft zur Förderung der Wissenschaften …, priority 2021, dated 2022)
